Experimental data: patent publication US7759345B2, “Antitumoral derivatives of ET-743” (priority 2001, dated 2010)
pIC50: −log10 of the molar value. Where two headings read alike, the source gives them in different places.

Key:
P-388 = test: Inhibition of cell growth by counting cells, P-388; format: cell-based, mouse; details: Mus musculus, P388, 72 h, read-out: IC50 (molar) P-388
Procedure: (§1) 1°.—Inhibition of Cell Growth by Counting Cells.
(§2) This form of the assay employs 24 well multidishes of 16 mm diameter (Bergeron, 1984; Schroeder, 1981). The tumor cell lines employed are: P-388 (ATCC CCL 46), suspension culture of a lymphoid neoplasm from a DBA/2 mouse; A-549 (ATCC CCL 185), monolayer culture of a human lung carcinoma; HT-29 (ATCC HTB-38), monolayer culture of a human colon carcinoma; MEL-28 (ATCC HTB-72), monolayer culture of a human melanoma and DU-145 (ATCC HTB-81), monolayer culture of a human prostate carcinoma.
(§3) Cells were maintained, in logarithmic phase of growth in Eagle's Minimum Essential Medium, with Earle's Balanced Salts, with non-essential amino acids, with 2.0 mM L-Glutamine, without sodium bicarbonate (EMEM/neaa), supplemented with 10% Fetal Calf Serum (FCS), 10^−2 M. sodium bicarbonate and 0.1 U/l penicillin G+0.1 g/l streptomycin sulfate. For the experiments, cells are harvested from subconfluent cultures using trypsin and resuspended in fresh medium before plating.
(§4) P-388 cells were seeded into 16 mm diameter wells at 1×10^4 cells per well in 1 ml aliquots of EMEM 5% FCS containing different concentrations of the sample to be tested. A separate set of cultures without drug was seeded as control of growth, to ensure that cells remained in exponential phase of growth. All determinations are carrying out in duplicate.
(§5) For quantifying the activity, after the incubation time, cells are trypsinized and counted in a Coulter Counter ZM. All counts (net cells per well), represent the average of duplicate wells. % G, percent of growth relative to cultures without drug. The results of these assays are used to generate dose-response curves from which more precise IC50 values are determined (sample concentration which produces 50% cell growth inhibition).
(§6) Obtained results may predict the usefulness of a certain drug as a potential cancer treatment. For this technique, compounds which show IC50 values smaller than 1 μg/ml are selected to continue with further studies. IC50's data allow to predict that not only could a drug be cystostatic, but also it could have a potential in terms of tumor reduction.

A-549 = test: Inhibition of cell growth by counting cells, A-549; format: cell-based, human; details: Homo sapiens, A549, 72 h, read-out: IC50 (molar) A-549
Procedure: as §1, §2, §3
as §4, with “A-549, HT-29, MEL-28 and DU-145” for “P-388”, “duplicate. After three days of incubation at 37° C., 5% CO2 in a 98% humid atmosphere cells were stained with 0.1% crystal violet. An approximately IC50 was determined by comparing the growth in wells with drug to the growth in wells control.” for “duplicate.”
as §5, §6

HT-29 = test: Inhibition of cell growth by counting cells, HT-29; format: cell-based, human; details: Homo sapiens, HT-29, 72 h, read-out: IC50 (molar) HT-29
Procedure: as §1, §2, §3
as §4, with “A-549, HT-29, MEL-28 and DU-145” for “P-388”, “duplicate. After three days of incubation at 37° C., 5% CO2 in a 98% humid atmosphere cells were stained with 0.1% crystal violet. An approximately IC50 was determined by comparing the growth in wells with drug to the growth in wells control.” for “duplicate.”
as §5, §6

MEL-28 = test: Inhibition of cell growth by counting cells, MEL-28; format: cell-based, human; details: Homo sapiens, SK-MEL-28, 72 h, read-out: IC50 (molar) MEL-28
Procedure: as §1, §2, §3
as §4, with “A-549, HT-29, MEL-28 and DU-145” for “P-388”, “duplicate. After three days of incubation at 37° C., 5% CO2 in a 98% humid atmosphere cells were stained with 0.1% crystal violet. An approximately IC50 was determined by comparing the growth in wells with drug to the growth in wells control.” for “duplicate.”
as §5, §6

SMILES | pIC50 (P-388; three days of incubation) | pIC50 (A-549; three days of incubation) | pIC50 (HT-29; three days of incubation) | pIC50 (MEL-28; three days of incubation) | other results
COc1cc2c(cc1OC(C)=O)CCN[C@]21CS[C@@H]2c3c(OC(C)=O)c(C)c4c(c3[C@H](COC1=O)N1C2[C@H]2c3c(cc(C)c(OC)c3O)C[C@@H]([C@@H]1C#N)N2C)OCO4 (stereo partly drawn) [Compound 2] | 9.83 | 9.83 | 9.83 | 9.83 | 
COc1cc2c(cc1OC(C)=O)CCN[C@]21CS[C@@H]2c3c(OC(C)=O)c(C)c4c(c3[C@H](COC1=O)N1C2[C@H]2c3c(cc(C)c(OC)c3OC(C)=O)C[C@@H]([C@@H]1C#N)N2C)OCO4 (stereo partly drawn) [Compound 6] | 8.85 | 8.53 | 8.53 | 8.53 | 
C=CCOC(=O)Oc1cc2c(cc1OC)[C@@]1(CS[C@@H]3c4c(OC(C)=O)c(C)c5c(c4[C@H](COC1=O)N1C3[C@H]3c4c(cc(C)c(OC)c4O)C[C@@H]([C@@H]1C#N)N3C)OCO5)NCC2 (stereo partly drawn) [Compound 25] | 9.85 | 9.85 | 9.85 | 9.85 | 
C=CCOC(=O)Oc1cc2c(cc1OC)[C@@]1(CS[C@@H]3c4c(OC(C)=O)c(C)c5c(c4[C@H](COC1=O)N1C3[C@H]3c4c(cc(C)c(OC)c4OC(=O)OCC=C)C[C@@H]([C@@H]1C#N)N3C)OCO5)NCC2 (stereo partly drawn) [Compound 26] | 8.27 | 8.27 | 8.27 | 8.27 | 
CCOc1cc2c(cc1OC)[C@@]1(CS[C@@H]3c4c(OC(C)=O)c(C)c5c(c4[C@H](COC1=O)N1C3[C@H]3c4c(cc(C)c(OC)c4O)C[C@@H]([C@@H]1C#N)N3C)OCO5)NCC2 (stereo partly drawn) [Compound 37] | 9.90 | 9.90 | 9.90 | 9.90 | 
CCCOc1cc2c(cc1OC)[C@@]1(CS[C@@H]3c4c(OC(C)=O)c(C)c5c(c4[C@H](COC1=O)N1C3[C@H]3c4c(cc(C)c(OC)c4O)C[C@@H]([C@@H]1C#N)N3C)OCO5)NCC2 (stereo partly drawn) [Compound 39] | 9.21 | 9.21 | 9.21 | 9.21 | 
COc1cc2c(cc1O)CCN[C@]21CS[C@@H]2c3c(OC(C)=O)c(C)c4c(c3[C@H](COC1=O)N1C2[C@H]2c3c(cc(C)c(OC)c3OC(C)=O)C[C@@H]([C@@H]1C#N)N2C)OCO4 (stereo partly drawn) [Compound 51] | 9.21 | 8.91 | 8.91 | 8.91 | 
COc1cc2c(cc1OP(=O)(OCc1ccccc1)OCc1ccccc1)CCN[C@]21CS[C@@H]2c3c(OC(C)=O)c(C)c4c(c3[C@H](COC1=O)N1C2[C@H]2c3c(cc(C)c(OC)c3O)C[C@@H]([C@@H]1C#N)N2C)OCO4 (stereo partly drawn) [Compound 53] |  |  |  |  | pIC50 (P-388): 8.31; pIC50 (A-549): 8.01; pIC50 (HT-29): 8.01; pIC50 (MEL-28): 8.01
COc1cc2c(cc1O)CCN(C)[C@]21CS[C@@H]2c3c(OC(C)=O)c(C)c4c(c3[C@H](COC1=O)N1C2[C@H]2c3c(cc(C)c(OC)c3O)C[C@@H]([C@@H]1C#N)N2C)OCO4 (stereo partly drawn) [Compound 54] | 9.89 | 9.89 | 9.89 | 9.89 | 
C=CCOc1c(C)c2c(c3c1[C@H]1SC[C@]4(NCCc5cc(O)c(OC)cc54)C(=O)OC[C@@H]3N3C1[C@H]1c4c(cc(C)c(OC)c4OCC=C)C[C@@H]([C@@H]3C#N)N1C)OCO2 (stereo partly drawn) [Compound 156] |  | 7.91 | 7.91 |  | 
COc1cc2c(cc1O)CCN[C@]21CS[C@@H]2c3c(OCc4ccccc4)c(C)c4c(c3[C@H](COC1=O)N1C2[C@H]2c3c(cc(C)c(OC)c3O)C[C@@H]([C@@H]1C#N)N2C)OCO4 (stereo partly drawn) [Compound 157] |  | 9.91 | 9.91 |  | 
COc1cc2c(cc1O)CCN[C@]21CS[C@@H]2c3c(OCc4ccccc4)c(C)c4c(c3[C@H](COC1=O)N1C2[C@H]2c3c(cc(C)c(OC)c3OCc3ccccc3)C[C@@H]([C@@H]1C#N)N2C)OCO4 (stereo partly drawn) [Compound 158] |  | 8.96 | 8.96 |  | 
COc1cc2c(cc1O)CCN[C@]21CS[C@@H]2c3c(OC(=O)C(F)(F)F)c(C)c4c(c3[C@H](COC1=O)N1C2[C@H]2c3c(cc(C)c(OC)c3OC(=O)C(F)(F)F)C[C@@H]([C@@H]1C#N)N2C)OCO4 (stereo partly drawn) [Compound 160] |  | 8.96 | 8.96 |  | 
COc1cc2c(cc1O)CCN[C@]21CS[C@@H]2c3c(OC(=O)/C=C/c4ccccc4)c(C)c4c(c3[C@H](COC1=O)N1C2[C@H]2c3c(cc(C)c(OC)c3OC(=O)/C=C/c3ccccc3)C[C@@H]([C@@H]1O)N2C)OCO4 (stereo partly drawn) [Compound 162] |  | 8.29 | 8.29 |  | 
CCCC(=O)Oc1c(C)c2c(c3c1[C@H]1SC[C@]4(NCCc5cc(O)c(OC)cc54)C(=O)OC[C@@H]3N3C1[C@H]1c4c(cc(C)c(OC)c4OC(=O)CCC)C[C@@H]([C@@H]3O)N1C)OCO2 (stereo partly drawn) [Compound 164] |  | 7.94 | 7.94 |  | 
CCCCCCCC(=O)Oc1c(C)c2c(c3c1[C@H]1SC[C@]4(NCCc5cc(O)c(OC)cc54)C(=O)OC[C@@H]3N3C1[C@H]1c4c(cc(C)c(OC)c4OC(=O)CCCCCCC)C[C@@H]([C@@H]3O)N1C)OCO2 (stereo partly drawn) [Compound 169] |  | 8.99 | 8.99 |  | 
CCOc1c(C)c2c(c3c1[C@H]1SC[C@]4(NCCc5cc(O)c(OC)cc54)C(=O)OC[C@@H]3N3C1[C@H]1c4c(cc(C)c(OC)c4O)C[C@@H]([C@@H]3O)N1C)OCO2 (stereo partly drawn) [Compound 177] |  | 9.87 | 9.87 |  | 
CCCOc1c(C)c2c(c3c1[C@H]1SC[C@]4(NCCc5cc(O)c(OC)cc54)C(=O)OC[C@@H]3N3C1[C@H]1c4c(cc(C)c(OC)c4O)C[C@@H]([C@@H]3O)N1C)OCO2 (stereo partly drawn) [Compound 178] |  | 8.88 | 8.88 |  | 
C=CCOc1c(C)c2c(c3c1[C@H]1SC[C@]4(NCCc5cc(O)c(OC)cc54)C(=O)OC[C@@H]3N3C1[C@H]1c4c(cc(C)c(OC)c4OCC=C)C[C@@H]([C@@H]3O)N1C)OCO2 (stereo partly drawn) [Compound 179] |  | 7.90 | 7.90 |  | 
COc1cc2c(cc1O)CCN[C@]21CS[C@@H]2c3c(OCc4ccccc4)c(C)c4c(c3[C@H](COC1=O)N1C2[C@H]2c3c(cc(C)c(OC)c3O)C[C@@H]([C@@H]1O)N2C)OCO4 (stereo partly drawn) [Compound 180] |  | 9.21 | 9.21 |  | 
COc1cc2c(cc1O)CCN[C@]21CS[C@@H]2c3c(OCc4ccccc4)c(C)c4c(c3[C@H](COC1=O)N1C2[C@H]2c3c(cc(C)c(OC)c3OCc3ccccc3)C[C@@H]([C@@H]1O)N2C)OCO4 (stereo partly drawn) [Compound 181] |  | 7.95 | 7.95 |  | 
CCCCCCCC(=O)Oc1cc2c(cc1OC)[C@@]1(CS[C@@H]3c4c(OC(C)=O)c(C)c5c(c4[C@H](COC1=O)N1C3[C@@H]3N[C@@H](Cc4cc(C)c(OC)c(OC(=O)CCCCCCC)c43)[C@@H]1O)OCO5)NCC2 (stereo partly drawn) [Compound 214] |  | 8.30 | 8.30 |  | 
CCCCCCCCCCCCCCCC(=O)Oc1cc2c(cc1OC)[C@@]1(CS[C@@H]3c4c(OC(C)=O)c(C)c5c(c4[C@H](COC1=O)N1C3[C@@H]3N[C@@H](Cc4cc(C)c(OC)c(OC(=O)CCCCCCCCCCCCCCC)c43)[C@@H]1O)OCO5)NCC2 (stereo partly drawn) [Compound 216] |  | 7.09 | 7.09 |  | 
COc1cc2c(cc1O)CCN[C@]21CS[C@@H]2c3c(OC(C)=O)c(C)c4c(c3[C@H](COC1=O)N1C2[C@H]2c3c(cc(C)c(O)c3O)C[C@@H]([C@@H]1O)N2C)OCO4 (stereo partly drawn) [Compound 221] |  | 8.87 | 8.87 |  | 
